Data reported in PubChem BioAssay AID2060885 (Molecular Pharmacology Branch, DTP, NCI, 2025).

Tested on: NCI-H23 complex spheroids with HUVEC/MSC, viability
Experiment: Anticancer human tumor NCI-H23 cell line growth inhibition [RAS];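 further: spheroids exposed to compound for 7 days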;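 on viability, T/C: 100% = DMSO vehicle control viability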
Details: for IC50: curve of first compound; for viability, T/C: stronger effect = lower value
Outline: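 Multi-cell-type spheroids: tumor cells plus HUVEC endothelial cells and mesenchymal stem cells. RAS-pathway inhibitors were combined with targeted agents, each dosed in half-log steps down from clinical Cmax, or from 10 microM when Cmax was unknown.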

[1] = second compound 0.000949 µM, first compound 0.0316 µM
[2] = second compound 0.000949 µM, first compound 0.1 µM
[3] = second compound 0.000949 µM, first compound 0.316 µM
[4] = second compound 0.000949 µM, first compound 1 µM
[5] = second compound 0.000949 µM, first compound 3.16 µM
[6] = second compound 0.000949 µM, first compound 10 µM
[7] = second compound 0.003 µM, first compound 0.0316 µM
[8] = second compound 0.003 µM, first compound 0.1 µM
[9] = second compound 0.003 µM, first compound 0.316 µM
[10] = second compound 0.003 µM, first compound 1 µM
[11] = second compound 0.003 µM, first compound 3.16 µM
[12] = second compound 0.003 µM, first compound 10 µM
[13] = second compound 0.00949 µM, first compound 0.0316 µM
[14] = second compound 0.00949 µM, first compound 0.1 µM
[15] = second compound 0.00949 µM, first compound 0.316 µM
[16] = second compound 0.00949 µM, first compound 1 µM
[17] = second compound 0.00949 µM, first compound 3.16 µM
[18] = second compound 0.00949 µM, first compound 10 µM
[19] = second compound 0.03 µM, first compound 0.0316 µM
[20] = second compound 0.03 µM, first compound 0.1 µM
[21] = second compound 0.03 µM, first compound 0.316 µM
[22] = second compound 0.03 µM, first compound 1 µM
[23] = second compound 0.03 µM, first compound 3.16 µM
[24] = second compound 0.03 µM, first compound 10 µM
[25] = second compound 0.0949 µM, first compound 0.0316 µM
[26] = second compound 0.0949 µM, first compound 0.1 µM
[27] = second compound 0.0949 µM, first compound 0.316 µM
[28] = second compound 0.0949 µM, first compound 1 µM
[29] = second compound 0.0949 µM, first compound 3.16 µM
[30] = second compound 0.0949 µM, first compound 10 µM
[31] = second compound 0.3 µM, first compound 0.0316 µM
[32] = second compound 0.3 µM, first compound 0.1 µM
[33] = second compound 0.3 µM, first compound 0.316 µM
[34] = second compound 0.3 µM, first compound 1 µM
[35] = second compound 0.3 µM, first compound 3.16 µM
[36] = second compound 0.3 µM, first compound 10 µM

CC(=O)OC12COC1CC(O)C1(C)C(=O)C(O)C3=C(C)C(OC(=O)C(O)C(NC(=O)OC(C)(C)C)c4ccccc4)CC(O)(C(OC(=O)c4ccccc4)C21)C3(C)C (centres undefined) + CCn1c(-c2cc(N3CCN(C)CC3)cnc2C(C)OC)c2c3cc(ccc31)-c1csc(n1)CC(NC(=O)C1CC1C)C(=O)N1CCCC(N1)C(=O)OCC(C)(C)C2
IC50 (second compound 0.000949 µM): < 31.6 nM
IC50 (second compound 0.003 µM): < 31.6 nM
IC50 (second compound 0.00949 µM): < 31.6 nM
IC50 (second compound 0.03 µM): < 31.6 nM
IC50 (second compound 0.0949 µM): < 31.6 nM
IC50 (second compound 0.3 µM): < 31.6 nM
viability, T/C [1]: 13.9%
viability, T/C [2]: 16.1%
viability, T/C [3]: 14.7%
viability, T/C [4]: 15.5%
viability, T/C [5]: 21.5%
viability, T/C [6]: 25.5%
viability, T/C [7]: 11.9%
viability, T/C [8]: 12.4%
viability, T/C [9]: 11.6%
viability, T/C [10]: 12.1%
viability, T/C [11]: 17.1%
viability, T/C [12]: 19.4%
viability, T/C [13]: 12.5%
viability, T/C [14]: 10.9%
viability, T/C [15]: 11.6%
viability, T/C [16]: 13.9%
viability, T/C [17]: 15.8%
viability, T/C [18]: 17.3%
viability, T/C [19]: 11.4%
viability, T/C [20]: 11.7%
viability, T/C [21]: 12%
viability, T/C [22]: 12.5%
viability, T/C [23]: 16.4%
viability, T/C [24]: 19.9%
viability, T/C [25]: 10.7%
viability, T/C [26]: 10.6%
viability, T/C [27]: 10.4%
viability, T/C [28]: 10.9%
viability, T/C [29]: 12.4%
viability, T/C [30]: 14.9%
viability, T/C [31]: 10.1%
viability, T/C [32]: 8.97%
viability, T/C [33]: 10.4%
viability, T/C [34]: 8.98%
viability, T/C [35]: 12.6%
viability, T/C [36]: 14.2%

CCC(CC)c1cc(NC2CCC(N)C2)n2nccc2n1 (centres undefined) + CCn1c(-c2cc(N3CCN(C)CC3)cnc2C(C)OC)c2c3cc(ccc31)-c1csc(n1)CC(NC(=O)C1CC1C)C(=O)N1CCCC(N1)C(=O)OCC(C)(C)C2
IC50 (second compound 0.000949 µM): < 31.6 nM
IC50 (second compound 0.003 µM): < 31.6 nM
IC50 (second compound 0.00949 µM): < 31.6 nM
IC50 (second compound 0.03 µM): < 31.6 nM
IC50 (second compound 0.0949 µM): < 31.6 nM
IC50 (second compound 0.3 µM): < 31.6 nM
viability, T/C [1]: 46.5%
viability, T/C [2]: 50.7%
viability, T/C [3]: 40.9%
viability, T/C [4]: 41.2%
viability, T/C [5]: 2.33%
viability, T/C [6]: 0.49%
viability, T/C [7]: 37.7%
viability, T/C [8]: 33.8%
viability, T/C [9]: 34%
viability, T/C [10]: 36.4%
viability, T/C [11]: 2.67%
viability, T/C [12]: 0.37%
viability, T/C [13]: 36.3%
viability, T/C [14]: 33.7%
viability, T/C [15]: 34.2%
viability, T/C [16]: 35.7%
viability, T/C [17]: 1.63%
viability, T/C [18]: 0.42%
viability, T/C [19]: 30.1%
viability, T/C [20]: 24.9%
viability, T/C [21]: 31.1%
viability, T/C [22]: 28.3%
viability, T/C [23]: 0.59%
viability, T/C [24]: 0.54%
viability, T/C [25]: 22.9%
viability, T/C [26]: 23.2%
viability, T/C [27]: 24.7%
viability, T/C [28]: 25.4%
viability, T/C [29]: 0.87%
viability, T/C [30]: 0.64%
viability, T/C [31]: 19%
viability, T/C [32]: 20.5%
viability, T/C [33]: 22.4%
viability, T/C [34]: 19%
viability, T/C [35]: 1.45%
viability, T/C [36]: 0.47%
